Test results from patent US9169199B2, “Cycloalkyl guanidine F1F0-ATPase inhibitors and therapeutic uses thereof” (Lycera Corporation, priority 2010, dated 2015).
pEC50, pIC50: −log10 of the molar value.

Experiments:
[1] = molecular target: T1, F1F0-ATPase (Bos taurus, UniProt P13621); assay: Inhibition of ATP synthesis by the F1F0-ATPase; assay type: biochemical
T1 construct: from tissue
Procedure: (§1) Compounds in Example 4 above were tested for activity against F1F0-ATPase by measuring ATP synthesis. In addition, the compounds were assessed for cytotoxicity in Ramos cells. Inhibition of ATP synthesis by the F1F0-ATPase and cytotoxicity in Ramos cells were measured according to the procedures described in K. M. Johnson et al. Chemistry & Biology 2005, 12, 485-496.

[2] = test system: Ramos cells; assay: Cytotoxicity in Ramos cells; assay type: cell-based; conditions: Homo sapiens, read-out: Ramos cell EC50
Procedure: as §1

SMILES | pIC50 [1] | pEC50 [2]
CC(=O)N[C@H]1CC[C@H](N/C(=N\C(=O)c2ccc(F)c(F)c2)Nc2cc(F)cc(Cl)c2)CC1 [Compound 100] | > 5.00 | > 5.00
O=C(/N=C(/NCc1cccc(C(F)(F)F)c1)N[C@H]1CC[C@H](O)CC1)c1ccc(F)c(F)c1 [Compound 33] | < 5.00 | > 5.00
O=C(Cc1ccc(Cl)cc1)/N=C(\Nc1cc(F)cc(Cl)c1)N[C@H]1CC[C@H](O)CC1 [Compound 71] | > 5.00 | < 5.00
CCOC(=O)N[C@H]1CC[C@H](N/C(=N\C(=O)c2ccc(F)c(F)c2)NCc2ccccc2C(F)(F)F)CC1 [Compound 50] | > 5.00 | > 5.00
O=C(/N=C(/NCc1cc(F)ccc1F)N[C@H]1CC[C@H](O)CC1)c1ccc(F)c(F)c1 [Compound 38] | < 5.00 | < 5.00
O=C(/N=C(/Nc1cccc(C(F)(F)F)c1)N[C@H]1CC[C@H](O)CC1)c1ccc(F)c(F)c1 [Compound 4] | > 5.00 | > 5.00
COC(=O)N[C@H]1CC[C@H](N/C(=N/C(=O)c2ccc(F)c(F)c2)Nc2cccc(C(F)(F)F)c2)CC1 [Compound 15] | > 5.00 | > 5.00
CCOC(=O)N[C@H]1CC[C@H](N/C(=N\C(=O)c2ccc(F)c(F)c2)NCC(F)(F)F)CC1 [Compound 107] | < 5.00 | < 5.00
O=C(/N=C(/NCc1ccc(F)cc1)N[C@H]1CC[C@H](O)CC1)c1ccc(F)c(F)c1 [Compound 37] | < 5.00 | < 5.00
O=C(/N=C(/NCc1cccc(F)c1F)N[C@H]1CC[C@H](O)CC1)c1ccc(F)c(F)c1 [Compound 40] | < 5.00 | < 5.00
CCOC(=O)N[C@H]1CC[C@H](N/C(=N\C(=O)c2ccc(F)c(F)c2)Nc2ccc(F)c(Cl)c2)CC1 [Compound 81] | > 5.00 | > 5.00
CCOC(=O)N[C@H]1CC[C@H](N/C(=N\C(=O)c2ccc(F)c(F)c2)NC2(C)CCC2)CC1 [Compound 106] | < 5.00 | < 5.00
O=C(/N=C(/Nc1cccc(Cl)c1)N[C@H]1CC[C@H](Nc2ncccn2)CC1)c1ccc(F)c(F)c1 [Compound 20] | > 5.00 | > 5.00
O=C(/N=C(/Nc1cc(F)cc(Cl)c1)NC1CCC(NC(=O)c2ccccc2)CC1)c1ccc(Cl)cc1 (centres unmarked) [Compound 164] | > 5.00 | > 5.00
O=C(/N=C(/Nc1ccccc1C1CC1)N[C@H]1CC[C@H](O)CC1)c1ccc(C(F)(F)F)cc1 [Compound 21] | > 5.00 | > 5.00
O=C(/N=C(/NCc1cccc(C(F)(F)F)c1)N[C@H]1CC[C@H](Nc2ncccn2)CC1)c1ccc(F)c(F)c1 [Compound 93] | > 5.00 | > 5.00
CS(=O)(=O)N[C@H]1CC[C@H](N/C(=N\C(=O)c2ccc(F)c(F)c2)Nc2cccc(C(F)(F)F)c2)CC1 [Compound 3] | > 5.00 | > 5.00
O=C(/N=C(/Nc1cc(F)cc(Cl)c1)NC1CCC(NC(=O)N2CCCC2)CC1)c1ccc(Cl)cc1 (centres unmarked) [Compound 163] | > 5.00 | > 5.00
O=C(/N=C(/NC1CCCCC1)N[C@H]1CC[C@H](Nc2ncccn2)CC1)c1ccc(F)c(F)c1 [Compound 87] | > 5.00 | > 5.00
O=C(/N=C(/Nc1ccccc1C1CC1)N[C@H]1CC[C@H](O)CC1)c1ccc(F)c(F)c1 [Compound 23] | < 5.00 | < 5.00

SMILES | pIC50 [1] | pEC50 [2]
N[C@H]1CC[C@H](N/C(=N/C(=O)c2ccc(F)c(F)c2)Nc2cccc(C(F)(F)F)c2)CC1 [Compound 13] | < 5.00 | > 5.00
CCOC(=O)N[C@H]1CC[C@H](N/C(=N\C(=O)c2ccc(C(F)(F)F)cc2)Nc2cccc(Cl)c2)CC1 [Compound 18] | > 5.00 | > 5.00
O=C(/N=C(/Nc1cccc(Cl)c1)N[C@H]1CC[C@H](NC(=O)c2cccs2)CC1)c1ccc(F)c(F)c1 [Compound 133] | > 5.00 | > 5.00
Cc1ccc(C(=O)/N=C(/Nc2cc(F)cc(Cl)c2)NC2CCC(NC(=O)c3ccccc3)CC2)cc1 (centres unmarked) [Compound 148] | > 5.00 | > 5.00
CCOC(=O)NC1CCC(N/C(=N\C(=O)c2ccc(F)c(S(C)(=O)=O)c2)NCc2ccc(F)cc2Cl)CC1 (centres unmarked) [Compound 145] | < 5.00 | < 5.00
CCOC(=O)NC1CCC(N/C(=N\C(=O)c2ccccc2)Nc2cc(F)cc(Cl)c2)CC1 (centres unmarked) [Compound 149] | > 5.00 | > 5.00
O=C(/N=C(/Nc1cccc(Cl)c1)N[C@H]1CC[C@H](O)CC1)c1ccc(C(F)(F)F)cc1 [Compound 8] | > 5.00 | > 5.00
O=C(/N=C(/NCc1ccc(F)c(Cl)c1)N[C@H]1CC[C@H](Nc2ncccn2)CC1)c1ccc(F)c(F)c1 [Compound 74] | > 5.00 | > 5.00
CC(C)(C)CN/C(=N/C(=O)c1ccc(F)c(F)c1)N[C@H]1CC[C@H](NC(=O)c2ccccc2)CC1 [Compound 142] | > 5.00 | > 5.00
O=C(/N=C(/Nc1cccc(Cl)c1F)N[C@H]1CC[C@H](Nc2ncccn2)CC1)c1ccc(F)c(F)c1 [Compound 84] | > 5.00 | < 5.00
CCOC(=O)N[C@H]1CC[C@H](N/C(=N\C(=O)c2ccc(F)c(F)c2)NC(C)(C)C)CC1 [Compound 103] | < 5.00 | < 5.00
O=C(/N=C(/Nc1cc(F)cc(Cl)c1)N[C@H]1CC[C@H](NC(=O)N2CCCC2)CC1)c1ccc(F)c(F)c1 [Compound 137] | > 5.00 | > 5.00
O=C(/N=C(/Nc1cc(F)cc(Cl)c1)NC1CCC(NC(=O)c2cscn2)CC1)c1ccc(F)c(F)c1 (centres unmarked) [Compound 170] | > 5.00 | > 5.00
O=C(/N=C(/Nc1cc(F)cc(Cl)c1)N[C@H]1CC[C@H](Nc2ncccn2)CC1)c1ccc(F)c(F)c1 [Compound 9] | > 5.00 | > 5.00
CCOC(=O)N[C@H]1CC[C@H](N/C(=N\C(=O)c2ccc(C(F)(F)F)cc2)NC2CCCC2)CC1 [Compound 110] | > 5.00 | < 5.00
CCOC(=O)N[C@H]1CC[C@H](N/C(=N\C(=O)c2ccc(F)c(F)c2)NC2CCC(C)CC2)CC1 (some centres unmarked) [Compound 77] | > 5.00 | > 5.00
CCOC(=O)N[C@H]1CC[C@H](N/C(=N\C(=O)c2ccc(F)c(F)c2)NC2CC2)CC1 [Compound 104] | < 5.00 | < 5.00
O=C(/N=C(/Nc1cc(F)cc(Cl)c1)N[C@H]1CC[C@H](O)CC1)c1ccc(F)c(F)c1 [Compound 6] | > 5.00 | > 5.00
CCOC(=O)N[C@H]1CC[C@H](N/C(=N/C(=O)c2ccc(F)c(F)c2)Nc2ccc(F)cc2C2CC2)CC1 [Compound 98] | > 5.00 | > 5.00
O=C(/N=C(/NCc1ccc(F)c(Cl)c1)N[C@H]1CC[C@H](O)CC1)c1ccc(F)c(F)c1 [Compound 44] | < 5.00 | > 5.00

SMILES | pIC50 [1] | pEC50 [2]
O=C(/N=C(/Nc1cc(F)cc(Cl)c1)N[C@H]1CCCC[C@@H]1O)c1ccc(F)c(F)c1 [Compound 129] | > 5.00 | > 5.00
CCOC(=O)NC1CCC(N/C(=N\C(=O)c2ccc(OC)cc2)Nc2cc(F)cc(Cl)c2)CC1 (centres unmarked) [Compound 152] | > 5.00 | > 5.00
CCOC(=O)NC1CCC(N/C(=N\C(=O)c2ccc(C)c(F)c2)Nc2cc(F)cc(Cl)c2)CC1 (centres unmarked) [Compound 160] | > 5.00 | > 5.00
O=C(/N=C(/NCc1ccc(Cl)cc1)N[C@H]1CC[C@H](O)CC1)c1ccc(F)c(F)c1 [Compound 31] | < 5.00 | < 5.00
O=C(/N=C(/NCc1ccc(C(F)(F)F)cc1)N[C@H]1CC[C@H](O)CC1)c1ccc(F)c(F)c1 [Compound 34] | < 5.00 | > 5.00
O=C(/N=C(/Nc1cc(F)cc(Cl)c1)N[C@H]1CC[C@H](NC(=O)c2cccs2)CC1)c1ccc(F)c(F)c1 [Compound 139] | > 5.00 | > 5.00
COc1ccc(C(=O)/N=C(/Nc2cc(F)cc(Cl)c2)NC2CCC(NC(=O)c3ccccc3)CC2)cc1 (centres unmarked) [Compound 154] | > 5.00 | > 5.00
O=C(/N=C(/Nc1cc(F)cc(Cl)c1)N[C@H]1CC[C@H](NC(=O)C(F)(F)F)CC1)c1ccc(F)c(F)c1 [Compound 130] | > 5.00 | > 5.00
O=C(/N=C(/Nc1cc(F)cc(Cl)c1)N[C@H]1CC[C@H](Nc2cnccn2)CC1)c1ccc(F)c(F)c1 [Compound 117] | > 5.00 | > 5.00
CCOC(=O)N[C@H]1CC[C@H](N/C(=N\C(=O)c2ccc(F)c(F)c2)NCc2ccc(F)cc2F)CC1 [Compound 58] | > 5.00 | > 5.00
CCOC(=O)N[C@H]1CC[C@H](N/C(=N\C(=O)c2ccc(F)c(F)c2)NCc2cc(F)ccc2F)CC1 [Compound 55] | > 5.00 | > 5.00
O=C(/N=C(/NC1CCCC1)N[C@H]1CC[C@H](Nc2ncccn2)CC1)c1ccc(C(F)(F)F)cc1 [Compound 114] | > 5.00 | > 5.00
CC(C)(C)N/C(=N/C(=O)c1ccc(C(F)(F)F)cc1)N[C@H]1CC[C@H](Nc2ncccn2)CC1 [Compound 112] | < 5.00 | < 5.00
O=C(/N=C(/Nc1cccc(Cl)c1)N[C@H]1CC[C@H](O)CC1)c1cccc(Cl)c1 [Compound 25] | < 5.00 | > 5.00
O=C(/N=C(/NCc1ccc(Cl)cc1F)N[C@H]1CC[C@H](O)CC1)c1ccc(F)c(F)c1 [Compound 46] | < 5.00 | > 5.00
O=C(/N=C(/Nc1cccc(C(F)(F)F)c1)N[C@H]1CC[C@H](Nc2ncccn2)CC1)c1ccc(C(F)(F)F)cc1 [Compound 116] | > 5.00 | > 5.00
COC(=O)NC1CCC(N/C(=N\C(=O)c2ccc(OC)cc2)Nc2cc(F)cc(Cl)c2)CC1 (centres unmarked) [Compound 153] | > 5.00 | > 5.00
CCOC(=O)N[C@H]1CC[C@H](N/C(=N\C(=O)c2ccc(F)c(F)c2)NC(C)(C)C(F)(F)F)CC1 [Compound 105] | < 5.00 | < 5.00
